Reference: ChEMBL document CHEMBL3991601, “The target landscape of clinical kinase drugs” (Science, 2017)
pKd: −log10 of the molar value. Active and inactive are the calls of the source.

How the values were obtained:
[1] = target: T1, Tyrosine--tRNA ligase, cytoplasmic (Homo sapiens, UniProt P54577)
T1 sequence (P54577 whole entry): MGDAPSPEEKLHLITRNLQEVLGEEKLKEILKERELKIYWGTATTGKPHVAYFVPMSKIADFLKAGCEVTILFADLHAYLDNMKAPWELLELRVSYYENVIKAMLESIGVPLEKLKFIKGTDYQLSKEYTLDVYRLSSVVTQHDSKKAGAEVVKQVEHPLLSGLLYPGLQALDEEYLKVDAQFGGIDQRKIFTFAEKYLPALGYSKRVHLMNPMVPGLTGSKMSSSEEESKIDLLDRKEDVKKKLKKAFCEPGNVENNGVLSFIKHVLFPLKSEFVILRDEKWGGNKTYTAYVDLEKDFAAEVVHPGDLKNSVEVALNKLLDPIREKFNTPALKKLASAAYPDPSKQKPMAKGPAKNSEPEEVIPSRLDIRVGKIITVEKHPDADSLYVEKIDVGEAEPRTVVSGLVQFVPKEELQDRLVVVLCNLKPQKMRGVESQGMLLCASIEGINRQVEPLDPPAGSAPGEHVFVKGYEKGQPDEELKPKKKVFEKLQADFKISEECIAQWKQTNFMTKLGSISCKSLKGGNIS

Myosin-10 = Myosin-10 (Homo sapiens, UniProt P35580)
DNA topoisomerase 2-beta = DNA topoisomerase 2-beta (Homo sapiens, UniProt Q02880)
[2] = target: BMP-2-inducible protein kinase (Homo sapiens, UniProt Q9NSY1)
GTP-binding protein 4 = GTP-binding protein 4 (Homo sapiens, UniProt Q9BZE4)
[3] = target: T2, Serine/threonine-protein kinase ULK3 (Homo sapiens, UniProt Q6PHR2)
T2 sequence (Q6PHR2 whole entry): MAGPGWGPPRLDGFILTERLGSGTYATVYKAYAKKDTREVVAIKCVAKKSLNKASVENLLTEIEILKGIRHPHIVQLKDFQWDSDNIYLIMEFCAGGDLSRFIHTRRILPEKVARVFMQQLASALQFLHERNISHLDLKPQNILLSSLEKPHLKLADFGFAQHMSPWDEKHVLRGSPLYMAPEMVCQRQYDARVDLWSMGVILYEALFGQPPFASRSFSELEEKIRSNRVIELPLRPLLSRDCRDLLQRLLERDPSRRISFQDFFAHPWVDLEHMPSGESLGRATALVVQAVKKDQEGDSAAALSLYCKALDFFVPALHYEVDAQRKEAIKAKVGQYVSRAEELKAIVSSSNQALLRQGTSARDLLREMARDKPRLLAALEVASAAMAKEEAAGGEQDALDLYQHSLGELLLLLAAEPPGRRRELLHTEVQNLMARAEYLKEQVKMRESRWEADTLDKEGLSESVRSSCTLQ

Ephrin type-A receptor 5 = Ephrin type-A receptor 5 (Homo sapiens, UniProt P54756)
[4] = target: Atypical kinase COQ8A, mitochondrial (Homo sapiens, UniProt Q8NI60)
[5] = target: T3, Probable ATP-dependent RNA helicase DDX6 (Homo sapiens, UniProt P26196)
T3 sequence (P26196 whole entry): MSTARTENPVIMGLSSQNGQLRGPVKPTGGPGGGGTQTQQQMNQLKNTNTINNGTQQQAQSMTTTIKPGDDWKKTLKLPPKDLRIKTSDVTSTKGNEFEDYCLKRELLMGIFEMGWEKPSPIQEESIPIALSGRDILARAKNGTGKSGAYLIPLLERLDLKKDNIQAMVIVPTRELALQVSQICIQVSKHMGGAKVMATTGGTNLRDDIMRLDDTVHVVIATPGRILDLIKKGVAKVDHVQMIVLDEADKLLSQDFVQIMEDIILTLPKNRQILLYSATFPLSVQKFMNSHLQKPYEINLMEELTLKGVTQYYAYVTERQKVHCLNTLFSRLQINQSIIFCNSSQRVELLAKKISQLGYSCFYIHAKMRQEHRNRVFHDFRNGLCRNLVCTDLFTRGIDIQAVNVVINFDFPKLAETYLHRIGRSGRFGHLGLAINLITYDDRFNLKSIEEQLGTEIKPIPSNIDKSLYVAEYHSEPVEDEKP

[6] = target: T4, Serine/threonine-protein kinase PLK4 (Homo sapiens, UniProt O00444)
T4 sequence (O00444 whole entry): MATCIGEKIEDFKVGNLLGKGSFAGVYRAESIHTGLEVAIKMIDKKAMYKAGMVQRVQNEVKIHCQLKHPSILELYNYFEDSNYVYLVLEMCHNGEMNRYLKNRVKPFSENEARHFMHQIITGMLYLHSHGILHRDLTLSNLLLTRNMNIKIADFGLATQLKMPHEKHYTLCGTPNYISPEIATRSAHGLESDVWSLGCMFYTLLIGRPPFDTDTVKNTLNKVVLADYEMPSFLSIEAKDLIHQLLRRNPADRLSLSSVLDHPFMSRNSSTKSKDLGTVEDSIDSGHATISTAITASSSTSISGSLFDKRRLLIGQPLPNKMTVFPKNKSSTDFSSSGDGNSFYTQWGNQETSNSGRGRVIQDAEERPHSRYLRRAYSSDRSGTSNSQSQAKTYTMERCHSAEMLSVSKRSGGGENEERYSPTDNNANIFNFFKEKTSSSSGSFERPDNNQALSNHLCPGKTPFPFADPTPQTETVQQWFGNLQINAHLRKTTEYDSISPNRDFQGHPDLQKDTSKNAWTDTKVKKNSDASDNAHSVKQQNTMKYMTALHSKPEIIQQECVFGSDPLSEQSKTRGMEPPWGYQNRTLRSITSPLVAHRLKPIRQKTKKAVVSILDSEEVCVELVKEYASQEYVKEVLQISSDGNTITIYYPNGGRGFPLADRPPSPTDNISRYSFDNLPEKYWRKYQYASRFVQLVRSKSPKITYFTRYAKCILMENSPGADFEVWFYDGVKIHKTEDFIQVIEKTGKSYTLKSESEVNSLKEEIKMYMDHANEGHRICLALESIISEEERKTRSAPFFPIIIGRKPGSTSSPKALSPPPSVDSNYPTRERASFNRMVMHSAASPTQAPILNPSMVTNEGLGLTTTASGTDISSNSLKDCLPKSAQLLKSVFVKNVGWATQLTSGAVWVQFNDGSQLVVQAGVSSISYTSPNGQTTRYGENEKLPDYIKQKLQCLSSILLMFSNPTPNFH

[7] = target: Mitogen-activated protein kinase 9 (Homo sapiens, UniProt P45984)
[8] = target: Serine/threonine-protein kinase MRCK beta (Homo sapiens, UniProt Q9Y5S2)
Note: in the data inactive means no Kd found up to 30 µM.

DNA topoisomerase 2-beta, sequence (Q02880 whole entry): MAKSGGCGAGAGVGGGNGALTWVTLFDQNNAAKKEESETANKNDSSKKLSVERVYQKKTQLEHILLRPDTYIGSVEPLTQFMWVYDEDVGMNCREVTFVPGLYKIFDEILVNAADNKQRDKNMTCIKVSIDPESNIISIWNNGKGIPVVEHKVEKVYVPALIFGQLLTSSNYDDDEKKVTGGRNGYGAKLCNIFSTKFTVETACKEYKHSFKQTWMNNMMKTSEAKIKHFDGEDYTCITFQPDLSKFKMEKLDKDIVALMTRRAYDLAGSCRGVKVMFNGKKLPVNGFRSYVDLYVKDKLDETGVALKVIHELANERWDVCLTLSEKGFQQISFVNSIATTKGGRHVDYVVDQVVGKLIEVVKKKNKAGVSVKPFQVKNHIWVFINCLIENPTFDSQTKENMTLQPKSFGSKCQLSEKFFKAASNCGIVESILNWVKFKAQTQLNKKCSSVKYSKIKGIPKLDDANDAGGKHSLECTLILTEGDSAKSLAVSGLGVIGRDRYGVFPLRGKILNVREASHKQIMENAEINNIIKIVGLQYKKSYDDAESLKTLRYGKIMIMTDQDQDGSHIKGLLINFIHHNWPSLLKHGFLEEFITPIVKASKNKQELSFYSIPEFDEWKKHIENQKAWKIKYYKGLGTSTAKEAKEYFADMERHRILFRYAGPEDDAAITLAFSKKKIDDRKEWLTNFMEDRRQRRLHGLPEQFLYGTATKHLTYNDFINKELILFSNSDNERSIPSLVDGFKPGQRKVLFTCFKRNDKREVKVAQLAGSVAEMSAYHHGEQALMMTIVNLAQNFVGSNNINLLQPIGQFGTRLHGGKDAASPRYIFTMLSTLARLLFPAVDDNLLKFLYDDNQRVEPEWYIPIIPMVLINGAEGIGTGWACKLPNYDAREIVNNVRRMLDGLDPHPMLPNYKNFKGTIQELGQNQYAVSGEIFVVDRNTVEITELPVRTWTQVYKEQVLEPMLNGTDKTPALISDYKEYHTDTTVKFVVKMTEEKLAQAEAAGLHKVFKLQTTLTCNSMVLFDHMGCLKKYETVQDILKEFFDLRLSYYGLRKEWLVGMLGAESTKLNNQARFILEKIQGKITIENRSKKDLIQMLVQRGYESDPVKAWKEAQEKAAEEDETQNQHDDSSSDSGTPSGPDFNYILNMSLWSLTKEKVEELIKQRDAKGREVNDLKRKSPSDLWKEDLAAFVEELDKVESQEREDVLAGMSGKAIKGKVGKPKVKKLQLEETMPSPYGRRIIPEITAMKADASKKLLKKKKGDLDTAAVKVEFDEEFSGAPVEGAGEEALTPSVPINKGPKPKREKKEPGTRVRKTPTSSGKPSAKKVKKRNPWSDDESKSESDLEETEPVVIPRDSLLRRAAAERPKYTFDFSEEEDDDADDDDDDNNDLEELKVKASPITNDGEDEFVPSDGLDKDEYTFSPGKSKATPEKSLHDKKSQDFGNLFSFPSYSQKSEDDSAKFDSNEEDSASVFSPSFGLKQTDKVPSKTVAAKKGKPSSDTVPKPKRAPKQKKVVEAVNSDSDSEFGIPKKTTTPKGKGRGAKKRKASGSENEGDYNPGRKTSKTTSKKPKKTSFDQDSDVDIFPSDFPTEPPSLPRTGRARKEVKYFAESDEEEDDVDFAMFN
Myosin-10, sequence (P35580 whole entry): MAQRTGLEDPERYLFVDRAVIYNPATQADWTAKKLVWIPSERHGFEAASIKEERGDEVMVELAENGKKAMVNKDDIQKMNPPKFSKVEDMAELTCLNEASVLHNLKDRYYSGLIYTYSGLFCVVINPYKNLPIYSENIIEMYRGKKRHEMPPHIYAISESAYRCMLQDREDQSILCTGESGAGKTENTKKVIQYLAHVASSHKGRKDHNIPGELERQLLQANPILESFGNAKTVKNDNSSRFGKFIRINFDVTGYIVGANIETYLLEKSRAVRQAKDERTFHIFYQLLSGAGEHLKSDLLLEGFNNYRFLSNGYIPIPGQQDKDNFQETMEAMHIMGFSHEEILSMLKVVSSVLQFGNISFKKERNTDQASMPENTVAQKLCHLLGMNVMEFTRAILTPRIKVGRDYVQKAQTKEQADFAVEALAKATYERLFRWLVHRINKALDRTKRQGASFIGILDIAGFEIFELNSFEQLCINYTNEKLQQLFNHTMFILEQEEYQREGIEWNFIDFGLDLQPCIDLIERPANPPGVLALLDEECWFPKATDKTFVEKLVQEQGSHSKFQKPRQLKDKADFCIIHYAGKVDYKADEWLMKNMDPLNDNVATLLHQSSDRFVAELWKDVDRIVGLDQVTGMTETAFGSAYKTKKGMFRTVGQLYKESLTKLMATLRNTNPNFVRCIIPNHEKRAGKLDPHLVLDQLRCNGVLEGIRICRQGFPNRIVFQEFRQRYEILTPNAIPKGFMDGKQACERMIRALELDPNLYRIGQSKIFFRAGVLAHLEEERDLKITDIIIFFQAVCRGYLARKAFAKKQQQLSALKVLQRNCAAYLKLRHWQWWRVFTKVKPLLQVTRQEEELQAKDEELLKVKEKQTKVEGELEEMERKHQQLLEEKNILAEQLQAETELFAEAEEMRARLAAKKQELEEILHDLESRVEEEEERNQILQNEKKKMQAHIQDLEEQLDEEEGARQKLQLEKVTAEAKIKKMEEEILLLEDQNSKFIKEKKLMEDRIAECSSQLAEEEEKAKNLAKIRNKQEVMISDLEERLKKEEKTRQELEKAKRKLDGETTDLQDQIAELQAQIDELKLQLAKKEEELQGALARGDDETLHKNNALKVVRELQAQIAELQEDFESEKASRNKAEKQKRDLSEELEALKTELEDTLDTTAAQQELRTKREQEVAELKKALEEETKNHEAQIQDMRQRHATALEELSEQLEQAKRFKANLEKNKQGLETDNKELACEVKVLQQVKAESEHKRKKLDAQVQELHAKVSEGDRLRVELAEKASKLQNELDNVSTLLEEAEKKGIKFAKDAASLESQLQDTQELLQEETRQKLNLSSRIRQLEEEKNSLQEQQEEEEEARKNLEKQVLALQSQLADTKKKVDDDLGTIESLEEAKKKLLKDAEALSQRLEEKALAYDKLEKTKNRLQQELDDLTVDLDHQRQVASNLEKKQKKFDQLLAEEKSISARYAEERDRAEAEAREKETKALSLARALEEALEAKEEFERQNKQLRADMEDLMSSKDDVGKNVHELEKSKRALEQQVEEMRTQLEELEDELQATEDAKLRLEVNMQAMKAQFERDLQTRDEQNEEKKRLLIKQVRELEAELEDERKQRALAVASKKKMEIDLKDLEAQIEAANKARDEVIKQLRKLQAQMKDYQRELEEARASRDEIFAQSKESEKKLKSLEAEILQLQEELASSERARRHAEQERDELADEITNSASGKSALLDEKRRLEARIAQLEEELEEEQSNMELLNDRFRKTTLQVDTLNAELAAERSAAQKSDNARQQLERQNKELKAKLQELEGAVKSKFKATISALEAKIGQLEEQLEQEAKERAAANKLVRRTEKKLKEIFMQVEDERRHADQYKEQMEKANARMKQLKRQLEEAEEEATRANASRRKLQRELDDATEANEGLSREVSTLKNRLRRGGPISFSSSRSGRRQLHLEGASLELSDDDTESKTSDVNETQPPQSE
BMP-2-inducible protein kinase, sequence (Q9NSY1 whole entry): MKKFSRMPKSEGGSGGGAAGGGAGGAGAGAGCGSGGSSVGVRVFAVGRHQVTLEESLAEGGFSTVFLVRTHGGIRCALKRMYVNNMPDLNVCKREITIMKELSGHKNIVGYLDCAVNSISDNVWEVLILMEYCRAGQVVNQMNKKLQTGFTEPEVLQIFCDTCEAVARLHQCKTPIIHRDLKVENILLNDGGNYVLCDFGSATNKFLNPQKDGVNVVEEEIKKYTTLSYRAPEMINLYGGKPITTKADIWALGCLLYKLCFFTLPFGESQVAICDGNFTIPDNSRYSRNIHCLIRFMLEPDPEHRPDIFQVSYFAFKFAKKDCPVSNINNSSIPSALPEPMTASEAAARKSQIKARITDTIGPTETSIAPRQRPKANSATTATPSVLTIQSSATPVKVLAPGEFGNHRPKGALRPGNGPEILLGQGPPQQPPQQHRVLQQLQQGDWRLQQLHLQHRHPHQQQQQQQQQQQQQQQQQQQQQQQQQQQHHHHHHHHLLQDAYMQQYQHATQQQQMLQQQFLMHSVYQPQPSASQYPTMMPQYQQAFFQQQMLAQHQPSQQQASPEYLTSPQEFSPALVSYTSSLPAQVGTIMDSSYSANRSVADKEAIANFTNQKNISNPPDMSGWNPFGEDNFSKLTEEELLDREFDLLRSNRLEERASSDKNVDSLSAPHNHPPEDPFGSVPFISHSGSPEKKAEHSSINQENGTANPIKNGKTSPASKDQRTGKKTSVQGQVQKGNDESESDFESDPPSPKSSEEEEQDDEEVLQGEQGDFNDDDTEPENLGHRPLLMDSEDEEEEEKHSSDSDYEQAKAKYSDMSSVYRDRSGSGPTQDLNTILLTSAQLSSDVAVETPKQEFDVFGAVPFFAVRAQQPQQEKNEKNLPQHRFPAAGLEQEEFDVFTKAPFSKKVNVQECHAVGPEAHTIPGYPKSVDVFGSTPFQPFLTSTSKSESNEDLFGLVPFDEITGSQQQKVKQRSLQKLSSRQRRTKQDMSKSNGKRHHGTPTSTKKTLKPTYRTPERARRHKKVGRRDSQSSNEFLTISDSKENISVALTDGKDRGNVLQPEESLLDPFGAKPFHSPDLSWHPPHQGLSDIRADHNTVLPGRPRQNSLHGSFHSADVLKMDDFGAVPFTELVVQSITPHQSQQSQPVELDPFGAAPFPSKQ

SMILES | Kd [1] | Kd (Myosin-10) | Kd (DNA topoisomerase 2-beta) | Kd [2] | Kd (GTP-binding protein 4) | Kd [3] | Kd (Ephrin type-A receptor 5) | Kd [4] | Kd [5] | Kd [6] | Kd [7] | Kd [8] | pKd (Ephrin type-A receptor 5)
Cc1cc(C(=O)NOCCO)c(Nc2ccc(I)cc2F)n(C)c1=O [AZD-8330] | > 30 µM (inactive) | > 30 µM (inactive) | > 30 µM (inactive) | > 30 µM (inactive) | > 30 µM (inactive) | > 30 µM (inactive) | > 30 µM (inactive) | > 30 µM (inactive) | > 30 µM (inactive) | > 30 µM (inactive) | > 30 µM (inactive) | > 30 µM (inactive) | –
COc1cc2ncnc(Oc3cccc(NC(=O)Nc4cc(C(C)(C)C(F)(F)F)on4)c3)c2cc1OC [CEP-32496] | > 30 µM (inactive) | > 30 µM (inactive) | > 30 µM (inactive) | > 30 µM (inactive) | > 30 µM (inactive) | > 30 µM (inactive) | – | > 30 µM (inactive) | > 30 µM (inactive) | > 30 µM (inactive) | 0.148 µM (active) | > 30 µM (inactive) | 6.40
COc1c(OCCCN2CCOCC2)ccc2c1N=C(NC(=O)c1cnc(N)nc1)N1CCN=C21 [COPANLISIB] | > 30 µM (inactive) | > 30 µM (inactive) | > 30 µM (inactive) | > 30 µM (inactive) | > 30 µM (inactive) | > 30 µM (inactive) | > 30 µM (inactive) | > 30 µM (inactive) | > 30 µM (inactive) | > 30 µM (inactive) | > 30 µM (inactive) | > 30 µM (inactive) | –
COCC(=O)NC/C=C/c1ccc2ncnc(Nc3ccc(Oc4ccc(C)nc4)c(C)c3)c2c1 [CP-724714] | > 30 µM (inactive) | > 30 µM (inactive) | > 30 µM (inactive) | > 30 µM (inactive) | > 30 µM (inactive) | > 30 µM (inactive) | > 30 µM (inactive) | > 30 µM (inactive) | > 30 µM (inactive) | > 30 µM (inactive) | > 30 µM (inactive) | > 30 µM (inactive) | –
C#Cc1cccc(Nc2ncnc3cc(OC)c(OCCCCCCC(=O)NO)cc23)c1 [CUDC-101] | > 30 µM (inactive) | > 30 µM (inactive) | > 30 µM (inactive) | > 30 µM (inactive) | > 30 µM (inactive) | > 30 µM (inactive) | > 30 µM (inactive) | > 30 µM (inactive) | > 30 µM (inactive) | > 30 µM (inactive) | > 30 µM (inactive) | > 30 µM (inactive) | –
O=C(Nc1nc2cccc(-c3ccc(CN4CCS(=O)(=O)CC4)cc3)n2n1)C1CC1 [FILGOTINIB] | > 30 µM (inactive) | > 30 µM (inactive) | > 30 µM (inactive) | 6.59 µM (active) | > 30 µM (inactive) | > 30 µM (inactive) | > 30 µM (inactive) | > 30 µM (inactive) | > 30 µM (inactive) | > 30 µM (inactive) | > 30 µM (inactive) | > 30 µM (inactive) | –
COc1ccc(S(=O)(=O)N(C(C)=O)c2ccccc2/C=C/c2cc[n+]([O-])cc2)cc1 [HMN-214] | > 30 µM (inactive) | > 30 µM (inactive) | > 30 µM (inactive) | > 30 µM (inactive) | > 30 µM (inactive) | > 30 µM (inactive) | > 30 µM (inactive) | > 30 µM (inactive) | > 30 µM (inactive) | > 30 µM (inactive) | > 30 µM (inactive) | > 30 µM (inactive) | –
O=C(Nc1cc(C(F)(F)F)cc(C(F)(F)F)c1)c1cc(Cl)ccc1O [IMD-0354] | > 30 µM (inactive) | > 30 µM (inactive) | > 30 µM (inactive) | > 30 µM (inactive) | > 30 µM (inactive) | > 30 µM (inactive) | > 30 µM (inactive) | > 30 µM (inactive) | > 30 µM (inactive) | > 30 µM (inactive) | > 30 µM (inactive) | > 30 µM (inactive) | –
CNC(=O)c1cccc2cc(Oc3ccnc4cc(OCC5(N)CC5)c(OC)cc34)ccc12 [LUCITANIB] | > 30 µM (inactive) | > 30 µM (inactive) | > 30 µM (inactive) | > 30 µM (inactive) | > 30 µM (inactive) | > 30 µM (inactive) | > 30 µM (inactive) | > 30 µM (inactive) | > 30 µM (inactive) | > 30 µM (inactive) | > 30 µM (inactive) | > 30 µM (inactive) | –
NC1(c2ccc(-c3nc4ccn5c(=O)[nH]nc5c4cc3-c3ccccc3)cc2)CCC1 [MK-2206] | > 30 µM (inactive) | > 30 µM (inactive) | > 30 µM (inactive) | > 30 µM (inactive) | > 30 µM (inactive) | > 30 µM (inactive) | > 30 µM (inactive) | > 30 µM (inactive) | > 30 µM (inactive) | > 30 µM (inactive) | > 30 µM (inactive) | > 30 µM (inactive) | –
CN(C[C@@H]1COCCO1)S(=O)(=O)Nc1ccc2ccc3ncc(-c4cnn(C)c4)cc3c(=O)c2c1 [MK-2461] | > 30 µM (inactive) | > 30 µM (inactive) | > 30 µM (inactive) | > 30 µM (inactive) | > 30 µM (inactive) | > 30 µM (inactive) | > 30 µM (inactive) | > 30 µM (inactive) | > 30 µM (inactive) | > 30 µM (inactive) | 1.93 µM (active) | > 30 µM (inactive) | –
FC(F)(F)c1ccc(/C=C/c2nc(COc3ccc(CCCCn4ccnn4)cc3)co2)cc1 [MUBRITINIB] | > 30 µM (inactive) | > 30 µM (inactive) | > 30 µM (inactive) | > 30 µM (inactive) | > 30 µM (inactive) | > 30 µM (inactive) | > 30 µM (inactive) | > 30 µM (inactive) | > 30 µM (inactive) | > 30 µM (inactive) | > 30 µM (inactive) | > 30 µM (inactive) | –
